Measurements as given in paper PMC6225228, “Design, Synthesis and Evaluation of N-pyrazinylbenzamides as Potential Antimycobacterial Agents” (Molecules : A Journal of Synthetic Chemistry and Natural …, 2018).
≈ marks a conversion by molar mass, not a printed value. Where two headings read alike, the source gives them in different places. Marks after values point to notes of the source that are not given here.

Columns and labels:
[1] = tested on: Staphylococcus epidermidis H 6966/08; assay: Antibacterial microdilution broth, SE; assay type: cell-based; conditions: read-out: MIC SE
[2] = tested on: Pseudomonas aeruginosa CCM 1961; assay: Antibacterial microdilution broth, PA; assay type: cell-based; conditions: Pseudomonas aeruginosa, read-out: MIC PA
[3] = tested on: Candida albicans ATCC 44859; assay: Antifungal microdilution broth, CA; assay type: cell-based; conditions: Candida albicans, read-out: MIC CA
[4] = tested on: M. kansasii CNCTC My 235/80 (ATCC 12478); assay: Antimycobacterial microdilution MABA, M. kansasii; assay type: cell-based, Mycobacterium kansasii; conditions: for MIC: Mycobacterium kansasii
Trichosporon asahii 1188 = assay: Antifungal microdilution broth, TA; assay type: cell-based; conditions: read-out: MIC TA
[5] = tested on: Mycobacterium tuberculosis H37Rv CNCTC My 331/88 (ATCC 27294); assay: Antimycobacterial microdilution MABA, M. tuberculosis; assay type: cell-based; conditions: for MIC: Mycobacterium tuberculosis
[6] = human, HepG2 cells
[7] = tested on: Aspergillus fumigatus 231; assay: Antifungal microdilution broth, AF; assay type: cell-based; conditions: read-out: MIC AF
Candida tropicalis 156 = assay: Antifungal microdilution broth, CT; assay type: cell-based; conditions: read-out: MIC CT
[8] = tested on: Mycobacterium smegmatis CCM 4622 (ATCC 607); assay: Antimycobacterial microdilution, M. smegmatis; assay type: cell-based; conditions: Mycolicibacterium smegmatis, read-out: M. smeg. ATCC 607 MIC
Candida krusei E28 = assay: Antifungal microdilution broth, CK; assay type: cell-based; conditions: Pichia kudriavzevii, read-out: MIC CK
[9] = tested on: Staphylococcus aureus CCM 4516/08; assay: Antibacterial microdilution broth, SA; assay type: cell-based
[10] = tested on: Staphylococcus aureus H 5996/08 methicillin resistant; assay: microbe, parasite or virus in culture; assay type: cell-based; conditions: for MIC: Staphylococcus aureus, MRSA, read-out: MIC MRSA
[11] = tested on: M. avium ssp. avium CNCTC My 80/72 (ATCC 15769); assay: Antimycobacterial microdilution MABA, M. avium; assay type: cell-based, Mycobacterium avium; conditions: for MIC: Mycobacterium avium
Candida glabrata 20/I = assay: Antifungal microdilution broth, CG; assay type: cell-based; conditions: Nakaseomyces glabratus, 20/I, read-out: MIC CG
[12] = tested on: Lichtheimia corymbifera 272; assay: Antifungal microdilution broth, LC; assay type: cell-based; conditions: read-out: MIC LC
[13] = tested on: Trichophyton interdigitale 445; assay: Antifungal microdilution broth, TI; assay type: cell-based; conditions: read-out: MIC TI
[14] = tested on: Enterococcus sp. J 14365/08; assay: Antibacterial microdilution broth, EF; assay type: cell-based; conditions: Enterococcus, read-out: MIC EF
[15] = tested on: Escherichia coli CCM 4517; assay: Antibacterial microdilution broth, EC; assay type: cell-based; conditions: Escherichia coli, read-out: MIC EC
[16] = tested on: Mycobacterium tuberculosis H37Rv (Mtb); conditions: cited from earlier work
[17] = tested on: Mycobacterium tuberculosis H37Rv (Mtb); conditions: cited from earlier work; remark: listed apart in the source
[18] = Staphylococcus epidermidis, H6966/08, 24 h
[19] = Staphylococcus epidermidis, H6966/08, 48 h
[20] = Middlebrook 7H9 with OADC, pH 6.6, MABA
[21] = ATCC12478, pH 6.6, read-out: M. kans. ATCC 12478 MIC, Middlebrook 7H9 with OADC, pH 6.6, MABA
[22] = Trichosporon asahii, 1188, 24 h
[23] = Trichosporon asahii, 1188, 48 h
[24] = Middlebrook 7H9 with OADC growth supplement, pH = 6.6, MABA
[25] = read-out: Mtb H37Rv ATCC 27294 MIC, Middlebrook 7H9 with OADC growth supplement, pH = 6.6, MABA
[26] = Aspergillus fumigatus, 231, 24 h
[27] = Aspergillus fumigatus, 231, 48 h
[28] = Staphylococcus aureus, CCM4516, 24 h, read-out: MIC SA, 24 h
[29] = Staphylococcus aureus, CCM4516, 48 h, read-out: MIC SA, 48 h
[30] = ATCC15769, pH 6.6, read-out: M. avium ATCC 15769 MIC
[31] = Lichtheimia corymbifera, 272, 24 h
[32] = Lichtheimia corymbifera, 272, 48 h
[33] = Trichophyton interdigitale, 445, 72 h
[34] = Trichophyton interdigitale, 445, 120 h
[35] = Middlebrook 7H9, pH = 6.6, MABA

Cc1ccc(C(=O)Nc2cnc(Cl)cn2)cc1 [Compound 2h]
MIC [1, 18]: > 125 µM
MIC [1, 19]: > 125 µM
MIC ([2]; CCM1961, 72 h): > 125 µM
MIC ([2]; CCM1961, 120 h): > 125 µM
MIC ([3]; ATCC44859, 24 h): > 125 µM
MIC ([3]; ATCC44859, 48 h): > 125 µM
M. kans. ATCC 12478 MIC [4, 20]: >100 µg/mL
MIC [4, 21]: > 100 µg/mL
MIC (Trichosporon asahii 1188; [22]): > 125 µM
MIC (Trichosporon asahii 1188; [23]): > 125 µM
Mtb H37Rv ATCC 27294 MIC [5, 24]: 6.25 µg/mL
MIC [5, 25]: 3.13 to 6.25 µg/mL
MIC ([5]; read-out: Mtb MIC, molar concentration): 25.2 µM
IC50 at 24 h [6]: > 250 µM
MIC [7, 26]: > 125 µM
MIC [7, 27]: > 125 µM
MIC (Candida tropicalis 156; Candida tropicalis, 156, 24 h): > 125 µM
MIC (Candida tropicalis 156; Candida tropicalis, 156, 48 h): > 125 µM
MIC [8]: ≥ 500 µg/mL
MIC (Candida krusei E28; E28, 24 h): > 125 µM
MIC (Candida krusei E28; E28, 48 h): > 125 µM
melting point: 186.4 to 187.1 °C
MIC ([9]; 24 h, read-out: MIC SA): >125 µM
MIC [9, 28]: > 125 µM
MIC [9, 29]: > 125 µM
MIC ([10]; 24 h): > 125 µM
MIC ([10]; 48 h): > 125 µM
M. avium ATCC 15769 MIC [11, 20]: >100 µg/mL
MIC [11, 30]: > 100 µg/mL
MIC (Candida glabrata 20/I; 24 h): > 125 µM
MIC (Candida glabrata 20/I; 48 h): > 125 µM
MIC [12, 31]: > 125 µM
MIC [12, 32]: > 125 µM
MIC [13, 33]: > 125 µM
MIC [13, 34]: > 125 µM
MIC ([14]; SP.J14365/08, 24 h): > 125 µM
MIC ([14]; SP.J14365/08, 48 h): > 125 µM
MIC ([15]; CCM4517, 24 h): > 125 µM
MIC ([15]; CCM4517, 48 h): > 125 µM

O=C(Nc1ccc(Cl)cc1)c1cnccn1 [Amide R1=H R2=4-Cl]
Amides Inhibition (%) at 6.25 μg/mL (TAACF) [16]: 4 [33] %
Amides MIC [17, 35]: 50 ^b [27] μg/mL

CC(=O)Oc1ccc(C(=O)Nc2cnc(Cl)cn2)cc1 [Compound 2d-Ac]
MIC ([1]; 24 h): >125 µM
MIC ([1]; 48 h): >125 µM
MIC [1, 18]: > 125 µM
MIC [1, 19]: > 125 µM
MIC ([2]; CCM1961, 72 h): > 125 µM
MIC ([2]; CCM1961, 120 h): > 125 µM
MIC ([3]; ATCC44859, 24 h): > 125 µM
MIC ([3]; ATCC44859, 48 h): > 125 µM
M. kans. ATCC 12478 MIC [4, 20]: >100 µg/mL
MIC [4, 21]: > 100 µg/mL
MIC (Trichosporon asahii 1188; [22]): > 125 µM
MIC (Trichosporon asahii 1188; [23]): > 125 µM
Mtb H37Rv ATCC 27294 MIC [5, 24]: >100 µg/mL
MIC [5, 25]: > 100 µg/mL
Mtb MIC ([5]; molar concentration): inactive
IC50 at 24 h [6]: > 500 µM
MIC [7, 26]: > 125 µM
MIC [7, 27]: > 125 µM
MIC (Candida tropicalis 156; Candida tropicalis, 156, 24 h): > 125 µM
MIC (Candida tropicalis 156; Candida tropicalis, 156, 48 h): > 125 µM
MIC [8]: 250 µg/mL (≈ 857 µM)
MIC (Candida krusei E28; E28, 24 h): > 125 µM
MIC (Candida krusei E28; E28, 48 h): > 125 µM
melting point: 170.9 to 171.8 °C
MIC [9, 28]: 0.98 µM (≈ 0.286 µg/mL)
MIC [9, 29]: 0.98 µM (≈ 0.286 µg/mL)
MIC MRSA ([10]; 24 h): >125 µM
MIC MRSA ([10]; 48 h): >125 µM
MIC ([10]; 24 h): > 125 µM
MIC ([10]; 48 h): > 125 µM
M. avium ATCC 15769 MIC [11, 20]: >100 µg/mL
MIC [11, 30]: > 100 µg/mL
MIC (Candida glabrata 20/I; 24 h): > 125 µM
MIC (Candida glabrata 20/I; 48 h): > 125 µM
MIC [12, 31]: > 125 µM
MIC [12, 32]: > 125 µM
MIC [13, 33]: > 125 µM
MIC [13, 34]: > 125 µM
MIC ([14]; SP.J14365/08, 24 h): > 125 µM
MIC ([14]; SP.J14365/08, 48 h): > 125 µM
MIC ([15]; CCM4517, 24 h): > 125 µM
MIC ([15]; CCM4517, 48 h): > 125 µM

O=C(Nc1cncc(Cl)n1)c1cccc(C(F)(F)F)c1 [Compound 3n, N-(6-chloropyrazin-2-yl)-3-(trifluoromethyl)benzamide]
MIC ([4]; ATCC12478, Middlebrook 7H9 with OADC, pH 6.6, MABA, read-out: M. kans. ATCC 12478 MIC): 25 µg/mL (≈ 82.9 µM)
MIC ([5]; Middlebrook 7H9 with OADC growth supplement, pH = 6.6, MABA, read-out: Mtb H37Rv ATCC 27294 MIC): 25 µg/mL
MIC ([5]; molar concentration, read-out: Mtb MIC): 82.9 µM
IC50 at 24 h [6]: > 250 µM
MIC ([8]; Middlebrook 7H9 with OADC, resazurin): 125 µg/mL (≈ 414 µM)
melting point: 124.2 to 125 °C
MIC ([11]; ATCC15769, Middlebrook 7H9 with OADC, pH 6.6, MABA, read-out: M. avium ATCC 15769 MIC): 50 µg/mL (≈ 166 µM)

O=C(Nc1cccc(C(F)(F)F)c1)c1cnccn1 [Amide R1=H R2=3-CF3]
Amides Inhibition (%) at 6.25 μg/mL (TAACF) [16]: 99 [32] %
Amides MIC [17, 35]: 50 µg/mL
Amides MIC ([17]; conditions not footnoted): 6.25 µg/mL

O=C(Nc1ccccc1)c1cnccn1 [Amide R1=H R2=H]
Amides Inhibition (%) at 6.25 μg/mL (TAACF) [16]: 0 [31] %
Amides MIC [17, 35]: >100 ^b [27] μg/mL

Cc1ccc(NC(=O)c2cnccn2)cc1 [Amide R1=H R2=4-CH3]
Amides Inhibition (%) at 6.25 μg/mL (TAACF) [16]: 86 [32] %
Amides MIC [17, 35]: 100 ^b [27] μg/mL

O=C(Nc1ccccc1)c1cncc(Cl)n1 [Amide R1=6-Cl R2=H]
Amides Inhibition (%) at 6.25 μg/mL (TAACF) [16]: 32 [31] %
Amides MIC ([17]; Šula's semisynthetic medium, pH = 5.6, MABA): 25 ^d [34] μg/mL
